# According to PubChem BioAssay (NCI):
#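 Five concentrations, 48 hours, 96-well plates. Definition used: TGI = concentration required for complete inhibition of growth.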
# Legend:
# Test in all cases: NCI-60 cell line screen, 48 h
# 786-0 renal = test system: 786-0 renal
# A498 renal = test system: A498 renal
# A549 NSCLC = test system: A549 NSCLC
# ACHN renal = test system: ACHN renal
# CAKI-1 renal = test system: CAKI-1 renal
# DLD-1 colon = test system: DLD-1 colon
# DMS 114 small cell lung = test system: DMS 114 small cell lung
# DMS 273 small cell lung = test system: DMS 273 small cell lung
# EKVX NSCLC = test system: EKVX NSCLC
# HCC-2998 colon = test system: HCC-2998 colon
# HCT-116 colon = test system: HCT-116 colon
# HCT-15 colon = test system: HCT-15 colon
# HL-60(TB) leukemia = test system: HL-60(TB) leukemia
# HOP-18 NSCLC = test system: HOP-18 NSCLC
# HOP-62 NSCLC = test system: HOP-62 NSCLC
# HOP-92 NSCLC = test system: HOP-92 NSCLC
# HT29 colon = test system: HT29 colon
# IGROV1 ovarian = test system: IGROV1 ovarian
# K-562 leukemia = test system: K-562 leukemia
# KM12 colon = test system: KM12 colon
# KM20L2 colon = test system: KM20L2 colon
# LOX IMVI melanoma = test system: LOX IMVI melanoma
# M14 melanoma = test system: M14 melanoma
# M19-MEL melanoma = test system: M19-MEL melanoma
# MALME-3M melanoma = test system: MALME-3M melanoma
# MOLT-4 leukemia = test system: MOLT-4 leukemia
# NCI-H226 lung = test system: NCI-H226 lung
# NCI-H23 lung = test system: NCI-H23 lung
# NCI-H460 lung = test system: NCI-H460 lung
# OVCAR-3 ovarian = test system: OVCAR-3 ovarian
# OVCAR-4 ovarian = test system: OVCAR-4 ovarian
# OVCAR-5 ovarian = test system: OVCAR-5 ovarian
# OVCAR-8 ovarian = test system: OVCAR-8 ovarian
# RPMI-8226 leukemia = test system: RPMI-8226 leukemia
# RXF 393 renal = test system: RXF 393 renal
# SF-268 CNS = test system: SF-268 CNS
# SF-295 CNS = test system: SF-295 CNS
# SF-539 CNS = test system: SF-539 CNS
# SK-MEL-2 melanoma = test system: SK-MEL-2 melanoma
# SK-MEL-28 melanoma = test system: SK-MEL-28 melanoma
# SK-MEL-5 melanoma = test system: SK-MEL-5 melanoma
# SN12C renal = test system: SN12C renal
# SNB-19 CNS = test system: SNB-19 CNS
# SNB-75 CNS = test system: SNB-75 CNS
# SNB-78 CNS = test system: SNB-78 CNS
# SW-620 colon = test system: SW-620 colon
# TK-10 renal = test system: TK-10 renal
# U251 CNS = test system: U251 CNS
# UACC-257 melanoma = test system: UACC-257 melanoma
# UACC-62 melanoma = test system: UACC-62 melanoma
# UO-31 renal = test system: UO-31 renal
# XF 498 CNS = test system: XF 498 CNS
# CCRF-CEM leukemia = test system: CCRF-CEM leukemia
# COLO 205 colon = test system: COLO 205 colon
# LXFL 529 NSCLC = test system: LXFL 529 NSCLC
# NCI-H522 lung = test system: NCI-H522 lung
# SK-OV-3 ovarian = test system: SK-OV-3 ovarian
# SR leukemia = test system: SR leukemia
smiles,measurement,setting,value
CCCc1nc(N)nc(C(=O)Nc2cccc(C(F)(F)F)c2)c1CC,TGI,786-0 renal,> 100 µM
same,TGI,A498 renal,> 100 µM
same,TGI,A549 NSCLC,> 100 µM
same,TGI,ACHN renal,> 100 µM
same,TGI,CAKI-1 renal,> 100 µM
same,TGI,DLD-1 colon,> 100 µM
same,TGI,DMS 114 small cell lung,> 100 µM
same,TGI,DMS 273 small cell lung,> 100 µM
same,TGI,EKVX NSCLC,> 100 µM
same,TGI,HCC-2998 colon,> 100 µM
same,TGI,HCT-116 colon,> 100 µM
same,TGI,HCT-15 colon,> 100 µM
same,TGI,HL-60(TB) leukemia,> 100 µM
same,TGI,HOP-18 NSCLC,> 100 µM
same,TGI,HOP-62 NSCLC,> 100 µM
same,TGI,HOP-92 NSCLC,> 100 µM
same,TGI,HT29 colon,> 100 µM
same,TGI,IGROV1 ovarian,> 100 µM
same,TGI,K-562 leukemia,> 100 µM
same,TGI,KM12 colon,> 100 µM
same,TGI,KM20L2 colon,> 100 µM
same,TGI,LOX IMVI melanoma,> 100 µM
same,TGI,M14 melanoma,> 100 µM
same,TGI,M19-MEL melanoma,> 100 µM
same,TGI,MALME-3M melanoma,> 100 µM
same,TGI,MOLT-4 leukemia,> 100 µM
same,TGI,NCI-H226 lung,> 100 µM
same,TGI,NCI-H23 lung,> 100 µM
same,TGI,NCI-H460 lung,> 100 µM
same,TGI,OVCAR-3 ovarian,> 100 µM
same,TGI,OVCAR-4 ovarian,> 100 µM
same,TGI,OVCAR-5 ovarian,> 100 µM
same,TGI,OVCAR-8 ovarian,> 100 µM
same,TGI,RPMI-8226 leukemia,> 100 µM
same,TGI,RXF 393 renal,> 100 µM
same,TGI,SF-268 CNS,> 100 µM
same,TGI,SF-295 CNS,> 100 µM
same,TGI,SF-539 CNS,> 100 µM
same,TGI,SK-MEL-2 melanoma,> 100 µM
same,TGI,SK-MEL-28 melanoma,> 100 µM
same,TGI,SK-MEL-5 melanoma,> 100 µM
same,TGI,SN12C renal,> 100 µM
same,TGI,SNB-19 CNS,> 100 µM
same,TGI,SNB-75 CNS,> 100 µM
same,TGI,SNB-78 CNS,> 100 µM
same,TGI,SW-620 colon,> 100 µM
same,TGI,TK-10 renal,> 100 µM
same,TGI,U251 CNS,> 100 µM
same,TGI,UACC-257 melanoma,> 100 µM
same,TGI,UACC-62 melanoma,> 100 µM
same,TGI,UO-31 renal,> 100 µM
same,TGI,XF 498 CNS,> 100 µM
O=C1C(Cl)C(c2cc(Br)cc(Br)c2O)N1n1cnc2ccccc2c1=O (stereo not given),TGI,786-0 renal,> 100 µM
same,TGI,A549 NSCLC,> 100 µM
same,TGI,ACHN renal,> 100 µM
same,TGI,CAKI-1 renal,88.3 µM
same,TGI,CCRF-CEM leukemia,49.5 µM
same,TGI,COLO 205 colon,93.2 µM
same,TGI,DLD-1 colon,> 100 µM
same,TGI,DMS 273 small cell lung,> 100 µM
same,TGI,EKVX NSCLC,85.9 µM
same,TGI,HCC-2998 colon,> 100 µM
same,TGI,HCT-116 colon,36.2 µM
same,TGI,HCT-15 colon,> 100 µM
same,TGI,HL-60(TB) leukemia,48 µM
same,TGI,HOP-18 NSCLC,83.8 µM
same,TGI,HOP-62 NSCLC,> 100 µM
same,TGI,HT29 colon,> 100 µM
same,TGI,IGROV1 ovarian,70.7 µM
same,TGI,K-562 leukemia,71.5 µM
same,TGI,KM12 colon,92.5 µM
same,TGI,KM20L2 colon,> 100 µM
same,TGI,LOX IMVI melanoma,30.4 µM
same,TGI,LXFL 529 NSCLC,> 100 µM
same,TGI,M14 melanoma,42.2 µM
same,TGI,M19-MEL melanoma,62.2 µM
same,TGI,MALME-3M melanoma,62.9 µM
same,TGI,MOLT-4 leukemia,30.1 µM
same,TGI,NCI-H226 lung,61.8 µM
same,TGI,NCI-H23 lung,86.3 µM
same,TGI,NCI-H460 lung,> 100 µM
same,TGI,NCI-H522 lung,49.1 µM
same,TGI,OVCAR-3 ovarian,79.4 µM
same,TGI,OVCAR-4 ovarian,43.1 µM
same,TGI,OVCAR-5 ovarian,71.8 µM
same,TGI,OVCAR-8 ovarian,94.9 µM
same,TGI,RPMI-8226 leukemia,37.4 µM
same,TGI,RXF 393 renal,63.7 µM
same,TGI,SF-268 CNS,> 100 µM
same,TGI,SF-295 CNS,54.2 µM
same,TGI,SK-MEL-2 melanoma,46.7 µM
same,TGI,SK-MEL-28 melanoma,70.5 µM
same,TGI,SK-MEL-5 melanoma,35.6 µM
same,TGI,SK-OV-3 ovarian,42.3 µM
same,TGI,SN12C renal,91.2 µM
same,TGI,SNB-19 CNS,89.3 µM
same,TGI,SNB-75 CNS,85.6 µM
same,TGI,SNB-78 CNS,> 100 µM
same,TGI,SR leukemia,35.1 µM
same,TGI,SW-620 colon,> 100 µM
same,TGI,TK-10 renal,> 100 µM
same,TGI,U251 CNS,31.8 µM
same,TGI,UACC-257 melanoma,45.3 µM
same,TGI,UACC-62 melanoma,49.3 µM
same,TGI,UO-31 renal,76.1 µM
same,TGI,XF 498 CNS,61.2 µM
Cc1cc(NS(=O)(=O)c2ccc(Nc3c4ccccc4nc4c(C(=O)Nc5ccc(S(N)(=O)=O)cc5)cccc34)cc2)no1,TGI,786-0 renal,> 100 µM
same,TGI,A498 renal,> 100 µM
same,TGI,A549 NSCLC,> 100 µM
same,TGI,ACHN renal,> 100 µM
same,TGI,CAKI-1 renal,> 100 µM
same,TGI,CCRF-CEM leukemia,79.9 µM
same,TGI,COLO 205 colon,> 100 µM
same,TGI,DLD-1 colon,> 100 µM
same,TGI,DMS 114 small cell lung,77.3 µM
same,TGI,DMS 273 small cell lung,> 100 µM
same,TGI,EKVX NSCLC,> 100 µM
same,TGI,HCT-116 colon,> 100 µM
same,TGI,HCT-15 colon,> 100 µM
same,TGI,HOP-18 NSCLC,> 100 µM
same,TGI,HOP-62 NSCLC,> 100 µM
same,TGI,HOP-92 NSCLC,81.6 µM
same,TGI,HT29 colon,> 100 µM
same,TGI,IGROV1 ovarian,> 100 µM
same,TGI,K-562 leukemia,> 100 µM
same,TGI,KM12 colon,50.6 µM
same,TGI,KM20L2 colon,> 100 µM
same,TGI,LOX IMVI melanoma,> 100 µM
same,TGI,LXFL 529 NSCLC,44.8 µM
same,TGI,M14 melanoma,> 100 µM
same,TGI,M19-MEL melanoma,64.8 µM
same,TGI,MALME-3M melanoma,53.1 µM
same,TGI,MOLT-4 leukemia,78.9 µM
same,TGI,NCI-H23 lung,> 100 µM
same,TGI,NCI-H460 lung,> 100 µM
same,TGI,NCI-H522 lung,54.1 µM
same,TGI,OVCAR-3 ovarian,31.7 µM
same,TGI,OVCAR-4 ovarian,51.1 µM
same,TGI,OVCAR-5 ovarian,> 100 µM
same,TGI,OVCAR-8 ovarian,> 100 µM
same,TGI,RPMI-8226 leukemia,> 100 µM
same,TGI,RXF 393 renal,> 100 µM
same,TGI,SF-268 CNS,> 100 µM
same,TGI,SF-295 CNS,> 100 µM
same,TGI,SF-539 CNS,61.2 µM
same,TGI,SK-MEL-2 melanoma,69.3 µM
same,TGI,SK-MEL-28 melanoma,83.9 µM
same,TGI,SK-MEL-5 melanoma,> 100 µM
same,TGI,SK-OV-3 ovarian,> 100 µM
same,TGI,SN12C renal,> 100 µM
same,TGI,SNB-19 CNS,84.9 µM
same,TGI,SNB-75 CNS,> 100 µM
same,TGI,SNB-78 CNS,60 µM
same,TGI,SW-620 colon,> 100 µM
same,TGI,TK-10 renal,> 100 µM
same,TGI,U251 CNS,57.4 µM
same,TGI,UACC-257 melanoma,> 100 µM
same,TGI,UACC-62 melanoma,55.8 µM
same,TGI,UO-31 renal,> 100 µM
same,TGI,XF 498 CNS,57.9 µM
